Values of other authors in patent US6631329B1, “Use of the crystal structure of Staphylococcus aureus isoleucyl-tRNA synthetase in antibiotic design” (Yale University, priority 1999, dated 2003).

Key:
[1] = system: Gram-negative bacterial IRS; details: many Gram-negative bacterial IRS
[2] = target: T1, human isoleucyl-tRNA synthetase (Homo sapiens, UniProt P41252)
T1 sequence (P41252 1-1262): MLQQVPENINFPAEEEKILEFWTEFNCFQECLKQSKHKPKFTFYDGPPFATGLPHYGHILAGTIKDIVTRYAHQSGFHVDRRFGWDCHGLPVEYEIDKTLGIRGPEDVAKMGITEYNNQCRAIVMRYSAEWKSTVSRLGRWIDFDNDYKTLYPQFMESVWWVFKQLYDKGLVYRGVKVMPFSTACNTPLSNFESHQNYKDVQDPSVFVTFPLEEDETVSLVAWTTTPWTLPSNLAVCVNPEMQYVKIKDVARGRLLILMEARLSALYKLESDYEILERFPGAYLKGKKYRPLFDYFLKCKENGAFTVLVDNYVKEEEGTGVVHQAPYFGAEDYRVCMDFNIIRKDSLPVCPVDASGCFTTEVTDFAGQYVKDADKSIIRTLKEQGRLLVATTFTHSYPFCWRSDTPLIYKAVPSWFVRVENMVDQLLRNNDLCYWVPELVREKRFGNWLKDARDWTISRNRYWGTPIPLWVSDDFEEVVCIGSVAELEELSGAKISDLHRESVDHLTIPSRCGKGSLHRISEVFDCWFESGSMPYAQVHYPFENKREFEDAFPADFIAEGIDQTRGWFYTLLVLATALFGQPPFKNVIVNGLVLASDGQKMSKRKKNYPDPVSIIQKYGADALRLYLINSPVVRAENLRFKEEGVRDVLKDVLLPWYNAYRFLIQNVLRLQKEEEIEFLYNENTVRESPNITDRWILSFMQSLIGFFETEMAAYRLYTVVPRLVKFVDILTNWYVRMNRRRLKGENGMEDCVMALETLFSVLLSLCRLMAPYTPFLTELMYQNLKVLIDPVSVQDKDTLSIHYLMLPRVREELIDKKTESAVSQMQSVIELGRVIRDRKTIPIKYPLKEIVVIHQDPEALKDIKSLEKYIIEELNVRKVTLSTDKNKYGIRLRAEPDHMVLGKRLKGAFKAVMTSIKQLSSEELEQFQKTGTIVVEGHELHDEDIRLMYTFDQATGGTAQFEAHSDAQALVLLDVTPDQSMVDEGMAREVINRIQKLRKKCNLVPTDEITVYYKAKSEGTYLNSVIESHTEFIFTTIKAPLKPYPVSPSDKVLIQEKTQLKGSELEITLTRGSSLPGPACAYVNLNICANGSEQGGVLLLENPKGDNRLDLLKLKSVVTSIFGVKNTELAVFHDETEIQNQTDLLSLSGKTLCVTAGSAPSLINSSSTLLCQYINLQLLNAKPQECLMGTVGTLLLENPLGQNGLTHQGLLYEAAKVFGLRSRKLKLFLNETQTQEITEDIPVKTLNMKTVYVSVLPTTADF

[3] = system: Pseudomonic fluoscenes (Psefl) enzyme; details: SA IRS vs Pseudomonic fluoscenes enzyme
[4] = target: T2, isoleucyl-tRNA synthetase (IRS) (Staphylococcus aureus, UniProt P41972); details: with respect to isoleucine
T2 sequence (P41972 1-917): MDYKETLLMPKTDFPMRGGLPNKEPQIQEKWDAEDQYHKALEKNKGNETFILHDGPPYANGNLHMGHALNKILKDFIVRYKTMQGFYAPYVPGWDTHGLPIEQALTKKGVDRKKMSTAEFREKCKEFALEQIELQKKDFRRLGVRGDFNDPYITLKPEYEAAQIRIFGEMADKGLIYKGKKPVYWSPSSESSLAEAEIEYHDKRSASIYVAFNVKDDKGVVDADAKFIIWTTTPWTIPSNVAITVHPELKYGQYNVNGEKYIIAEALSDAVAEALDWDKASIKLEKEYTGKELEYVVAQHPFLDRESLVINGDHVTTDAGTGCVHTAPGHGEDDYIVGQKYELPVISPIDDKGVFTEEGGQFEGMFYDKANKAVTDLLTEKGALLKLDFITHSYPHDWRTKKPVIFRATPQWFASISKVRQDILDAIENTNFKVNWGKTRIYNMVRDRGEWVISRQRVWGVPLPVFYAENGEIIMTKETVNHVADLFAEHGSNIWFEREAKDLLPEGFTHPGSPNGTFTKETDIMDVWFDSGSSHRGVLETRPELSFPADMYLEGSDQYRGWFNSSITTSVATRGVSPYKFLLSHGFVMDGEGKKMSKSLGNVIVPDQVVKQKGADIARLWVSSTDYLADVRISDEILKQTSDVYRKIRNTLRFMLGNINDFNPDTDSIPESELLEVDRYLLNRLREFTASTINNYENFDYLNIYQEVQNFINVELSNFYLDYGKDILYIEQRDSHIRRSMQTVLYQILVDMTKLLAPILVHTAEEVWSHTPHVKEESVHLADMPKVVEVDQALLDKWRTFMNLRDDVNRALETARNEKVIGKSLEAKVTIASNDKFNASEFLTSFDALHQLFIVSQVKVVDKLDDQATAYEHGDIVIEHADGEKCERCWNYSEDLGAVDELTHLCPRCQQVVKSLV

MRSA [5] = system: MRSA
MRSA [6] = details: topical use
MRSA [7] = details: in vivo
[8] = target: MURSA isoleucyl-tRNA synthetase (Staphylococcus aureus, UniProt P41368)

| clearance in the urine (in vivo) | Compound | activity of the metabolite (in vivo) | concentration at which mupirocin inhibits bacterial IRS [1] | sensitivity of human isoleucyl-tRNA synthetase to the antibiotic [2] | concentration for binding the human enzyme relative to bacterial IRS ([2]; higher than for bacterial IRS) | difference in inhibition between SA IRS and Psefl enzyme [3] | mode of inhibition of IRS [4] | effectiveness against MRSA (MRSA [5]) | eradication of nasal carriage of MRSA (MRSA [6]) | eradication of MRSA in skin and virginal infections (MRSA [6]; after failure of intervenous vancomycin therapy) | effectiveness against bacteremia caused by MRSA (MRSA [7]) | sensitivity of MURSA isoleucyl-tRNA synthetase to the antibiotic [8] | half-life in vivo (metabolic conversion from pseudomonic acid to monic acid) |
| --- | --- | --- | --- | --- | --- | --- | --- | --- | --- | --- | --- | --- | --- |
| rapidly cleared | C/C(=C\C(=O)O)C[C@@H]1OC[C@H](C[C@@H]2O[C@H]2[C@@H](C)[C@H](C)O)[C@@H](O)[C@H]1O [monic acid] | inactive |  |  |  |  |  |  |  |  |  |  |  |
|  | C/C(=C\C(=O)OCCCCCCCCC(=O)O)C[C@@H]1OC[C@H](C[C@@H]2O[C@H]2[C@@H](C)[C@H](C)O)[C@@H](O)[C@H]1O [Mupirocin, mupirocin] |  | nM concentrations | resistant | 3 to 4 orders of magnitude | 10^6 | competitive inhibitor for isoleucine | highly effective | very successfully eradicated | eradicated | not very effective | resistant | short |
